Reference: PubChem BioAssay AID1963423 (Molecular Pharmacology Branch, DTP, NCI, 2024)

Tested on: 439559-082-T-J2-PDC complex spheroid growth
Test: Anticancer human tumor 439559-082-T-J2-PDC patient-derived colon adenocarcinoma cell line growth inhibition [Asc]
Details: for IC50: curve of first compound; for viability, T/C: stronger effect = lower value
Method in brief: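 Complex spheroids combining tumor cells with HUVEC endothelial cells and human MSCs, at 37 degrees C, 5% CO2; agents tested alone or combined, half-log dilutions from at or near clinical Cmax, or 10 microM if Cmax unknown.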

[1] = second compound 0.00316 µM, first compound 0.00316 µM
[2] = second compound 0.00316 µM, first compound 0.01 µM
[3] = second compound 0.00316 µM, first compound 0.0316 µM
[4] = second compound 0.00316 µM, first compound 0.1 µM
[5] = second compound 0.01 µM, first compound 0.00316 µM
[6] = second compound 0.01 µM, first compound 0.01 µM
[7] = second compound 0.01 µM, first compound 0.0316 µM
[8] = second compound 0.01 µM, first compound 0.1 µM
[9] = second compound 0.0316 µM, first compound 0.00316 µM
[10] = second compound 0.0316 µM, first compound 0.01 µM
[11] = second compound 0.0316 µM, first compound 0.0316 µM
[12] = second compound 0.0316 µM, first compound 0.1 µM
[13] = second compound 0.1 µM, first compound 0.00316 µM
[14] = second compound 0.1 µM, first compound 0.01 µM
[15] = second compound 0.1 µM, first compound 0.0316 µM
[16] = second compound 0.1 µM, first compound 0.1 µM
[17] = second compound 0.316 µM, first compound 0.00316 µM
[18] = second compound 0.316 µM, first compound 0.01 µM
[19] = second compound 0.316 µM, first compound 0.0316 µM
[20] = second compound 0.316 µM, first compound 0.1 µM
[21] = second compound 1 µM, first compound 0.00316 µM
[22] = second compound 1 µM, first compound 0.01 µM
[23] = second compound 1 µM, first compound 0.0316 µM
[24] = second compound 1 µM, first compound 0.1 µM
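Further: spheroids exposed to agents for 7 days starting day 3 after seeding.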
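Wherever viability, T/C is given: percent of DMSO vehicle control viability with 100% = vehicle.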

Cn1ncnc1[C@H]1c2n[nH]c(=O)c3cc(F)cc(c23)N[C@@H]1c1ccc(F)cc1 + CNC(C)C(=O)NC1CN(S(=O)(=O)c2cccc(S(=O)(=O)N3CCC4CCC(C(=O)NC(c5ccccc5)c5ccccc5)N4C(=O)C(NC(=O)C(C)NC)C3)c2)CCC2CCC(C(=O)NC(c3ccccc3)c3ccccc3)N2C1=O
IC50 (second compound 0.00316 µM): < 0.316 nM
IC50 (second compound 0.01 µM): > 100 nM
IC50 (second compound 0.0316 µM): > 100 nM
IC50 (second compound 0.1 µM): > 100 nM
IC50 (second compound 0.316 µM): > 100 nM
IC50 (second compound 1 µM): > 100 nM
viability, T/C (second compound 0.00316 µM, first compound 0.000316 µM): 46.7%
viability, T/C (second compound 0.00316 µM, first compound 0.001 µM): 41.6%
viability, T/C [1]: 38.5%
viability, T/C [2]: 46.7%
viability, T/C [3]: 56.8%
viability, T/C [4]: 45%
viability, T/C (second compound 0.01 µM, first compound 0.000316 µM): 101%
viability, T/C (second compound 0.01 µM, first compound 0.001 µM): 101%
viability, T/C [5]: 105%
viability, T/C [6]: 89%
viability, T/C [7]: 95.2%
viability, T/C [8]: 89.1%
viability, T/C (second compound 0.0316 µM, first compound 0.000316 µM): 102%
viability, T/C (second compound 0.0316 µM, first compound 0.001 µM): 94.8%
viability, T/C [9]: 101%
viability, T/C [10]: 88.9%
viability, T/C [11]: 104%
viability, T/C [12]: 104%
viability, T/C (second compound 0.1 µM, first compound 0.000316 µM): 93.4%
viability, T/C (second compound 0.1 µM, first compound 0.001 µM): 101%
viability, T/C [13]: 97.2%
viability, T/C [14]: 92.4%
viability, T/C [15]: 103%
viability, T/C [16]: 104%
viability, T/C (second compound 0.316 µM, first compound 0.000316 µM): 99.8%
viability, T/C (second compound 0.316 µM, first compound 0.001 µM): 93.5%
viability, T/C [17]: 93.1%
viability, T/C [18]: 88.1%
viability, T/C [19]: 97%
viability, T/C [20]: 99.7%
viability, T/C (second compound 1 µM, first compound 0.000316 µM): 74.5%
viability, T/C (second compound 1 µM, first compound 0.001 µM): 72.2%
viability, T/C [21]: 79.5%
viability, T/C [22]: 80.8%
viability, T/C [23]: 87%
viability, T/C [24]: 81.6%

O=C(c1ccc(F)c(F)c1Nc1ccc(I)cc1F)N1CC(O)([C@@H]2CCCCN2)C1 + CNC(C)C(=O)NC1CN(S(=O)(=O)c2cccc(S(=O)(=O)N3CCC4CCC(C(=O)NC(c5ccccc5)c5ccccc5)N4C(=O)C(NC(=O)C(C)NC)C3)c2)CCC2CCC(C(=O)NC(c3ccccc3)c3ccccc3)N2C1=O
IC50 (second compound 0.00316 µM): 262 nM
IC50 (second compound 0.01 µM): 248 nM
IC50 (second compound 0.0316 µM): 253 nM
IC50 (second compound 0.1 µM): 228 nM
IC50 (second compound 0.316 µM): 141 nM
IC50 (second compound 1 µM): 124 nM
viability, T/C [1]: 96.6%
viability, T/C [2]: 77.4%
viability, T/C [3]: 76.8%
viability, T/C [4]: 67.9%
viability, T/C (second compound 0.00316 µM, first compound 0.316 µM): 48.6%
viability, T/C (second compound 0.00316 µM, first compound 1 µM): 16.2%
viability, T/C [5]: 99.5%
viability, T/C [6]: 107%
viability, T/C [7]: 87.7%
viability, T/C [8]: 61.9%
viability, T/C (second compound 0.01 µM, first compound 0.316 µM): 51%
viability, T/C (second compound 0.01 µM, first compound 1 µM): 25.6%
viability, T/C [9]: 108%
viability, T/C [10]: 95.6%
viability, T/C [11]: 89.5%
viability, T/C [12]: 63.5%
viability, T/C (second compound 0.0316 µM, first compound 0.316 µM): 47.6%
viability, T/C (second compound 0.0316 µM, first compound 1 µM): 27.1%
viability, T/C [13]: 86.8%
viability, T/C [14]: 98.3%
viability, T/C [15]: 86.7%
viability, T/C [16]: 61.6%
viability, T/C (second compound 0.1 µM, first compound 0.316 µM): 46.7%
viability, T/C (second compound 0.1 µM, first compound 1 µM): 17%
viability, T/C [17]: 89.8%
viability, T/C [18]: 101%
viability, T/C [19]: 69.8%
viability, T/C [20]: 51.4%
viability, T/C (second compound 0.316 µM, first compound 0.316 µM): 46.8%
viability, T/C (second compound 0.316 µM, first compound 1 µM): 25%
viability, T/C [21]: 72.2%
viability, T/C [22]: 68%
viability, T/C [23]: 68.2%
viability, T/C [24]: 48.4%
viability, T/C (second compound 1 µM, first compound 0.316 µM): 39%
viability, T/C (second compound 1 µM, first compound 1 µM): 15.5%
